Earlier results in article PMC5766568, “Effective photo-enhancement of cellular activity of fluorophore-octaarginine antisense PNA conjugates correlates with singlet oxygen formation, endosomal escape and chromophore lipophilicity” (Scientific Reports, 2018).
Like-named read-outs stand apart in the source and are kept apart here.

From the text: This could be due to a low quantum yield for singlet oxygen formation, which unfortunately is not available.

Q: Which “log P (octanol/water)” value does the source give for `N=c1ccc2c(-c3ccc(C(=O)O)cc3C(=O)O)c3ccc(N)c(S(=O)(=O)O)c3oc-2c1S(=O)(=O)O` [AF488, Alexa Fluor 488] here?
A: −1.44

Q: Which “log P (octanol/water)” value (fluorophore alone) does the source give for `CN(C)c1ccc2c(-c3ccccc3C(=O)[O-])c3ccc(N(C)C)cc3[o+]c2c1` [TMR fluorophore, Tetramethylrhodamine] here?
A: 2.92
